Test results published in US11912663B2, “Multi-targeted tyrosine kinase inhibitors and their pharmaceutical uses” (Shanghai AB PharmaTech Ltd., priority 2021, dated 2024).

System: pancreatic cancer cell line (BXPC3)
Assay: tumor cell proliferation inhibition (CTG), pancreatic cancer cell line
Format: cell-based
Details: Homo sapiens, BXPC-3, 72 hours

COc1cc2nccc(Oc3c(F)cc(NC(=O)NC4CC4)c(Cl)c3F)c2cc1C(=O)NC(C)C [IIIb-04] and COc1cc2nccc(Oc3c(F)cc(NC(=O)NC4CC4)c(Cl)c3F)c2cc1C(=O)N[C@H](C)CO [IIIb-17] cannot be ordered by IC50: over 10 µM for the first, over 10 µM for the second.

COc1cc2nccc(Oc3c(F)cc(NC(=O)NC4CC4)c(Cl)c3F)c2cc1C(=O)NC1(C#N)CC1 [IIIb-48] and COc1cc2nccc(Oc3c(F)cc(NC(=O)NC4CC4)c(Cl)c3F)c2cc1C(=O)NC1(CO)CC1 [IIIb-23] cannot be ordered by IC50: over 10 µM for the first, over 10 µM for the second.

COc1cc2nccc(Oc3c(F)cc(NC(=O)NC4CC4)c(Cl)c3F)c2cc1C(=O)N1CCN(C)CC1 [IIIb-27] and COc1cc2nccc(Oc3c(F)cc(NC(=O)NC4CC4)c(Cl)c3F)c2cc1C(=O)N1CCC1 [IIIb-14] cannot be ordered by IC50: over 10 µM for the first, over 10 µM for the second.

COc1cc2nccc(Oc3c(F)cc(NC(=O)NC4CC4)c(Cl)c3F)c2cc1C(=O)N(C1CC1)C1CC1 [IIIb-13] and COc1cc2nccc(Oc3c(F)cc(NC(=O)NC4CC4)c(Cl)c3F)c2cc1C(=O)NC1CC1 [IIIb-12] cannot be ordered by IC50: over 10 µM for the first, over 10 µM for the second.

Going from COc1cc2nccc(Oc3c(F)cc(NC(=O)NC4CC4)c(F)c3F)c2cc1C(=O)NC1CC1 [IIIb-11] to COc1cc2nccc(Oc3c(F)cc(NC(=O)NC4CC4)c(F)c3F)c2cc1C(=O)NCCO [IIIb-15], the IC50 rises from under 5 µM to over 10 µM.

COc1cc2nccc(Oc3c(F)cc(NC(=O)NC4CC4)c(Cl)c3OC)c2cc1C#N [IIIb-30] and COc1cc2nccc(Oc3c(F)cc(NC(=O)NC4CC4)c(Cl)c3F)c2cc1C(=O)N1CC(O)C1 [IIIb-24] cannot be ordered by IC50: over 10 µM for the first, over 10 µM for the second.

COc1cc2nccc(Oc3c(F)cc(NC(=O)NC4CC4)c(Cl)c3F)c2cc1C(=O)Nc1cncn1C [IIIb-54] and COc1cc2nccc(Oc3c(F)cc(NC(=O)NC4CC4)c(Cl)c3F)c2cc1C(=O)Nc1cnn(C)c1 [IIIb-53] cannot be ordered by IC50: over 10 µM for the first, over 10 µM for the second.

Going from CN(C)CCOc1cc2nccc(Oc3c(F)cc(NC(=O)NC4CC4)c(Cl)c3F)c2cc1C(N)=O [IIIb-59] to COc1cc2nccc(Oc3c(F)cc(NC(=O)NC4CC4)c(Cl)c3F)c2cc1C(=O)N1CC[C@H](O)C1 [IIIb-26], the IC50 falls from over 10 µM to under 5 µM. The second is the more potent here.

COc1cc2nccc(Oc3c(F)cc(NC(=O)NC4CC4)c(Cl)c3F)c2cc1C(=O)NC(CO)C(F)(F)F (stereo not drawn) [IIIb-42] and COc1cc2nccc(Oc3c(F)cc(NC(=O)NC4CC4)c(Cl)c3F)c2cc1C(=O)NC1(C(F)(F)F)CC1 [IIIb-41] cannot be ordered by IC50: over 10 µM for the first, over 10 µM for the second.

System: lung cancer cell line (A549)
Assay: tumor cell proliferation inhibition (CTG), lung cancer cell line
Format: cell-based
Details: Homo sapiens, 72 hours

COc1cc2nccc(Oc3c(F)cc(NC(=O)NC4CC4)c(Cl)c3F)c2cc1C(=O)NC(C)C [IIIb-04] and COc1cc2nccc(Oc3c(F)cc(NC(=O)NC4CC4)c(Cl)c3F)c2cc1C(=O)N[C@H](C)CO [IIIb-17] cannot be ordered by IC50: over 5 µM for the first, over 5 µM for the second.

COc1cc2nccc(Oc3c(F)cc(NC(=O)NC4CC4)c(Cl)c3F)c2cc1C(=O)NC1(C#N)CC1 [IIIb-48] and COc1cc2nccc(Oc3c(F)cc(NC(=O)NC4CC4)c(Cl)c3F)c2cc1C(=O)NC1(CO)CC1 [IIIb-23] cannot be ordered by IC50: over 5 µM for the first, over 5 µM for the second.

COc1cc2nccc(Oc3c(F)cc(NC(=O)NC4CC4)c(Cl)c3F)c2cc1C(=O)N1CCN(C)CC1 [IIIb-27] and COc1cc2nccc(Oc3c(F)cc(NC(=O)NC4CC4)c(Cl)c3F)c2cc1C(=O)N1CCC1 [IIIb-14] cannot be ordered by IC50: over 5 µM for the first, over 5 µM for the second.

COc1cc2nccc(Oc3c(F)cc(NC(=O)NC4CC4)c(Cl)c3F)c2cc1C(=O)N(C1CC1)C1CC1 [IIIb-13] and COc1cc2nccc(Oc3c(F)cc(NC(=O)NC4CC4)c(Cl)c3F)c2cc1C(=O)NC1CC1 [IIIb-12] cannot be ordered by IC50: over 5 µM for the first, over 5 µM for the second.

Compared with COc1cc2nccc(Oc3c(F)cc(NC(=O)NC4CC4)c(F)c3F)c2cc1C(=O)NC1CC1 [IIIb-11], COc1cc2nccc(Oc3c(F)cc(NC(=O)NC4CC4)c(F)c3F)c2cc1C(=O)NCCO [IIIb-15] is higher in IC50: under 2.5 µM for the first, over 5 µM for the second. The first is the more potent here.

COc1cc2nccc(Oc3c(F)cc(NC(=O)NC4CC4)c(Cl)c3OC)c2cc1C#N [IIIb-30] and COc1cc2nccc(Oc3c(F)cc(NC(=O)NC4CC4)c(Cl)c3F)c2cc1C(=O)N1CC(O)C1 [IIIb-24] cannot be ordered by IC50: over 5 µM for the first, over 5 µM for the second.

COc1cc2nccc(Oc3c(F)cc(NC(=O)NC4CC4)c(Cl)c3F)c2cc1C(=O)Nc1cncn1C [IIIb-54] and COc1cc2nccc(Oc3c(F)cc(NC(=O)NC4CC4)c(Cl)c3F)c2cc1C(=O)Nc1cnn(C)c1 [IIIb-53] cannot be ordered by IC50: over 5 µM for the first, over 5 µM for the second.

Compared with CN(C)CCOc1cc2nccc(Oc3c(F)cc(NC(=O)NC4CC4)c(Cl)c3F)c2cc1C(N)=O [IIIb-59], COc1cc2nccc(Oc3c(F)cc(NC(=O)NC4CC4)c(Cl)c3F)c2cc1C(=O)N1CC[C@H](O)C1 [IIIb-26] is lower in IC50: over 5 µM for the first, under 2.5 µM for the second. The second is the more potent here.

COc1cc2nccc(Oc3c(F)cc(NC(=O)NC4CC4)c(Cl)c3F)c2cc1C(=O)NC(CO)C(F)(F)F (stereo not drawn) [IIIb-42] and COc1cc2nccc(Oc3c(F)cc(NC(=O)NC4CC4)c(Cl)c3F)c2cc1C(=O)NC1(C(F)(F)F)CC1 [IIIb-41] cannot be ordered by IC50: over 5 µM for the first, over 5 µM for the second.

System: kidney cancer cell line (Caki-1)
Assay: tumor cell proliferation inhibition (CTG), kidney cancer cell line
Format: cell-based
Details: Homo sapiens, 72 hours, read-out: Caki-1 (renal cancer) IC50

COc1cc2nccc(Oc3c(F)cc(NC(=O)NC4CC4)c(Cl)c3F)c2cc1C(=O)NC(C)C [IIIb-04] and COc1cc2nccc(Oc3c(F)cc(NC(=O)NC4CC4)c(Cl)c3F)c2cc1C(=O)N[C@H](C)CO [IIIb-17] cannot be ordered by IC50: over 5 µM for the first, over 5 µM for the second.

COc1cc2nccc(Oc3c(F)cc(NC(=O)NC4CC4)c(Cl)c3F)c2cc1C(=O)NC1(C#N)CC1 [IIIb-48] and COc1cc2nccc(Oc3c(F)cc(NC(=O)NC4CC4)c(Cl)c3F)c2cc1C(=O)NC1(CO)CC1 [IIIb-23] cannot be ordered by IC50: over 5 µM for the first, over 5 µM for the second.

COc1cc2nccc(Oc3c(F)cc(NC(=O)NC4CC4)c(Cl)c3F)c2cc1C(=O)N1CCN(C)CC1 [IIIb-27] and COc1cc2nccc(Oc3c(F)cc(NC(=O)NC4CC4)c(Cl)c3F)c2cc1C(=O)N1CCC1 [IIIb-14] cannot be ordered by IC50: over 5 µM for the first, over 5 µM for the second.

COc1cc2nccc(Oc3c(F)cc(NC(=O)NC4CC4)c(Cl)c3F)c2cc1C(=O)N(C1CC1)C1CC1 [IIIb-13] and COc1cc2nccc(Oc3c(F)cc(NC(=O)NC4CC4)c(Cl)c3F)c2cc1C(=O)NC1CC1 [IIIb-12] cannot be ordered by IC50: over 5 µM for the first, over 5 µM for the second.

First: COc1cc2nccc(Oc3c(F)cc(NC(=O)NC4CC4)c(F)c3F)c2cc1C(=O)NC1CC1 [IIIb-11]
Second: COc1cc2nccc(Oc3c(F)cc(NC(=O)NC4CC4)c(F)c3F)c2cc1C(=O)NCCO [IIIb-15]
The IC50 of the first is lower: under 2.5 µM for the first, over 5 µM for the second. The first is the more potent here.

COc1cc2nccc(Oc3c(F)cc(NC(=O)NC4CC4)c(Cl)c3OC)c2cc1C#N [IIIb-30] and COc1cc2nccc(Oc3c(F)cc(NC(=O)NC4CC4)c(Cl)c3F)c2cc1C(=O)N1CC(O)C1 [IIIb-24] cannot be ordered by IC50: over 5 µM for the first, over 5 µM for the second.

COc1cc2nccc(Oc3c(F)cc(NC(=O)NC4CC4)c(Cl)c3F)c2cc1C(=O)Nc1cncn1C [IIIb-54] and COc1cc2nccc(Oc3c(F)cc(NC(=O)NC4CC4)c(Cl)c3F)c2cc1C(=O)Nc1cnn(C)c1 [IIIb-53] cannot be ordered by IC50: over 5 µM for the first, over 5 µM for the second.

First: CN(C)CCOc1cc2nccc(Oc3c(F)cc(NC(=O)NC4CC4)c(Cl)c3F)c2cc1C(N)=O [IIIb-59]
Second: COc1cc2nccc(Oc3c(F)cc(NC(=O)NC4CC4)c(Cl)c3F)c2cc1C(=O)N1CC[C@H](O)C1 [IIIb-26]
The IC50 of the first is higher: over 5 µM for the first, under 2.5 µM for the second.

COc1cc2nccc(Oc3c(F)cc(NC(=O)NC4CC4)c(Cl)c3F)c2cc1C(=O)NC(CO)C(F)(F)F (stereo not drawn) [IIIb-42] and COc1cc2nccc(Oc3c(F)cc(NC(=O)NC4CC4)c(Cl)c3F)c2cc1C(=O)NC1(C(F)(F)F)CC1 [IIIb-41] cannot be ordered by IC50: over 5 µM for the first, over 5 µM for the second.
